Patent US5486528A, “Basic ethers and process for the preparation thereof” (Egis Gyogyszergyar Rt., priority 1993, dated 1996)
Like-named read-outs stand apart in the source and are kept apart here.

What was measured:
Male Wistar rats [1] = experiment: Vogel test (drinking conflict test), anxiolytic effect; assay type: in vivo, rat (Wistar); conditions: ip, 0.5 h; rat, intraperitoneally, half an hour before testing; read-out: MED (minimum effective dose), Vogel test
Method: 1.1. Vogel test (drinking conflict test)
The anxiolytic effect was tested by using the method of Vogel et al. Male Wistar rats of 160 to 180 g body weight were kept free of food and drinking water for 24 and 48 hours, respectively. Test and carrier substances were administered intraperitoneally half an hour before testing. Animals within the experimental chamber were provided with drinking water through an inserted tube. After the animals' each twenty lapping for water the device emitted a 2 mA intensity electric shock through the drinking tube. During 5 minutes the shocks tolerated by the animals in order to quench their thirst were counted. The effect of treatment was expressed as the % increase of the tolerated shocks. The minimum effective dose (MED) was determined for each test compound [Volge, J. R., Beer, B., Clody, D. E.: Psychopharmacologia (Berl.) 21, 1 (1971)].

mice = experiment: Effect on the spontaneous motor activity (Borsy), sedative effect; assay type: in vivo, mouse; conditions: for ED50: Mus musculus, po, 0.5 h, read-out: ID50, spontaneous motor activity
Method: 2.1. Effect on the spontaneous motor activity
The test was carried out according to the method of Borsy et al. Groups consisting of 3 mice each were treated orally with different doses of the compounds to be tested. Then the test animals were placed into a 10-channel Dews system equipment. In this equipment the number of interruptions of infrared beam within 30 minutes was counted. […] Int. Pharmacodyn. 124, 1 (1960)].

Male Wistar rats [2] = experiment: Conditioned avoidance response inhibition, antipsychotic effect; assay type: in vivo, rat (Wistar); conditions: rat; for Inhibition of the conditioned reflex (%): 30 mg/kg p.o., ++ = p < 0.05
Method: Conditioned avoidance response inhibition
The antipsychotic (neuroleptic) effect was measured by the inhibition of the learned conditioned avoidance reflex. The male Wistar rats, used for the study, were of 120-150 g body weight at the commencement of learning. A shuttle box was used as experimental device; it consists of two parts, 24×24.5×23 cm each, separated by a wall with a 6×9 cm gate. In response to a sutiable warning stimulus, in order to avoid the punishing (unconditioned) stimulus, animals within the box passed through the gate from one part to the other. The warning, i.e. conditioned stimulus (CS), a white light (1 Hz) blinking for 15 seconds, was applied at the place of the actual animal existence. The unconditioned stimulus (US), in form of 0.6 mA intensity electric shock, was randomly applied to the paw during the last 5 seconds of the conditioned stimulus. The animal's movement during the CS and US from one part of the box to the other, was defined as avoidance and escape responses, respectively. Both responses ceased the actual stimulus and stopped the trial. The time elapsed until the next trial (intertrial interval, ITI) was 15 seconds. While one experiment was carried out daily, an experiment consisted of 80 trials. Learning efficiency was expressed as percentage of the successful to the total avoidances. Effect of the neuroleptic drugs was examined in animals with stabilized conditioned reflexes and with at least 75% learning efficiency. Dosing was carried out once a week, one hour before the measurement in the shuttle box. To calculate the neuroleptic effect (50% inhibiting dose, ID50) , results obtained after the treatment were compared to those obtained on the previous day (controls).

[3] = Acute toxicity on mice (Litchfield and Wilcoxon); conditions: mouse, in vivo, ip
[4] = Acute toxicity on mice (Litchfield and Wilcoxon); conditions: mouse, in vivo, po
Method: The test was carried out according to the method of Litchfield and Wilcoxon [Litchfield, J. T. and Wilcoxon, F. W.: J. Pharmacol. Exp. Ther., 96, 99 (1949)] by using white mice belonging to the CFLP strain and weighing 10 to 22 g, 10 animals per dose. The test compounds were administered orally in a volume of 20 cm^3 /kg.

gastric-acid secretion = experiment: Gastric-acid-secretion test (Shay); assay type: in vivo, rat; conditions: po, read-out: Acid-secretion inhibition, ED50
Method: 2. […] The liberated gastric-acid content was determined by titration 4 hours after the ligature of the duodenum.

[5] = system: erosion of the stomach wall; experiment: Cytoprotective effect, ethanol erosion (Robert); assay type: in vivo; conditions: rat; for ED50: po; for Ratio of acid-secretion inhibition and erosion inhibition: ratio of ED50 values
Method: 3. The cytoprotective effect was determined according to the method of Robert [Robert, A.: Cytoprotection by prostaglandins. […] Rats weighing 200 to 250 g were used as test animals. 1 cm^3 of abs. ethanol was introduced to the stomach to produce an erosion of the stomach wall. The length and frequency of the lesions (erosion index and frequency) were measured and the percentage inhibition of lesion formation compared with vehicle-treated animals was calculated.

H^+ /K^+ -ATP-ase = target: T1, H^+ /K^+ -ATP-ase (Sus scrofa, UniProt P19156); experiment: H+/K+-ATP-ase inhibition on partially purified pig's microsome specimen; assay type: biochemical
T1 construct: on partially purified pig's microsome specimen; from tissue; host or cells: pig stomach, partially purified microsomes
T1 sequence (P19156 2-1034 limits assumed): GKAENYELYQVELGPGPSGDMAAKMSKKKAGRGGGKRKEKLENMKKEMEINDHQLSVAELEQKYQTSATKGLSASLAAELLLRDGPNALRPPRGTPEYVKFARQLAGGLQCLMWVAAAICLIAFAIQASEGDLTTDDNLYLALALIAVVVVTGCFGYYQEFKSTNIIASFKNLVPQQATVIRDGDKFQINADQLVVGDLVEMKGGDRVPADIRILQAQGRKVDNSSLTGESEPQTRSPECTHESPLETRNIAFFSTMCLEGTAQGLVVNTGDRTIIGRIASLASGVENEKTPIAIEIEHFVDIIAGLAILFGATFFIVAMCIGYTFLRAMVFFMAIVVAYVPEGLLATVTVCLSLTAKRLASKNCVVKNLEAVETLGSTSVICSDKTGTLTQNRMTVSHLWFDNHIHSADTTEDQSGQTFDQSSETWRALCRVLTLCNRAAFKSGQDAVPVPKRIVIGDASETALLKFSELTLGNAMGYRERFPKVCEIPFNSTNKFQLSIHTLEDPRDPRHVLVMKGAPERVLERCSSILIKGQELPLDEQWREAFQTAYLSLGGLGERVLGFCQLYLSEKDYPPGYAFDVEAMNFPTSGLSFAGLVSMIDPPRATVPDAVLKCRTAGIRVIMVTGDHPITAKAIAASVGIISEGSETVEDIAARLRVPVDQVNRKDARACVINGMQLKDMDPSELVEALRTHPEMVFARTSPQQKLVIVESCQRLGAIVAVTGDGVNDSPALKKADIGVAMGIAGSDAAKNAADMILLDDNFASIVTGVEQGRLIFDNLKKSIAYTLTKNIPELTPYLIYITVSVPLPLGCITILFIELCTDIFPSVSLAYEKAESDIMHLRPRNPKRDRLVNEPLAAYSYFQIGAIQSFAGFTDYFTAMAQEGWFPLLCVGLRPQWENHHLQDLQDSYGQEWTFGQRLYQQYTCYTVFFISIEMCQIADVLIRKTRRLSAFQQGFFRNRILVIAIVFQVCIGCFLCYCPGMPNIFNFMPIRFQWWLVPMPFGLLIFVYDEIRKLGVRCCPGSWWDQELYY
T1 sequence (P18434 whole entry partner): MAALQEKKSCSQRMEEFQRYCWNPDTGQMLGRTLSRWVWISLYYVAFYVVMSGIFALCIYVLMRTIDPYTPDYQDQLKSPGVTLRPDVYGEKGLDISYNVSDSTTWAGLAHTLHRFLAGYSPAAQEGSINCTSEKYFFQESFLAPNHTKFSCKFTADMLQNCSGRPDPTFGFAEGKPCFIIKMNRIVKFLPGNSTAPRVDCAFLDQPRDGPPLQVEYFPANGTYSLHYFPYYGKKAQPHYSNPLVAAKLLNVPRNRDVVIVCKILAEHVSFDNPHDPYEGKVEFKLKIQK
Method: 1. H^+ /K^+ -ATP-ase inhibition on pig's stomach
The test was carried out according to the method of Rabon and Sachs [E. C. Rabon et al.: Preparation of gastric H^+ K^+ -ATP-ase, Methods in Enzymology, 157, 649-651 (1988)]. The activity of the prepared enzyme was measured both in the presence as in the absence of K^+ ions. The difference in the libaration of phosphorus representing the activity of the enzyme was measured.

[6] = rat, p.o., 4 hours after ligature

| Compound | minimal effective dose (Male Wistar rats [1]) | Inhibition of the conditioned reflex (%) (Male Wistar rats [2]) | ED50 (mice; mice, orally, 30 minutes) | ED50 (gastric-acid secretion; [6]) | ED50 ([5]; 1 cm^3 abs. ethanol) | Ratio of acid-secretion inhibition and erosion inhibition ([5]; p.o.) | IC50 (H^+ /K^+ -ATP-ase) | LD50 at 336 h [3] | LD50 at 336 h [4] | further results |
| --- | --- | --- | --- | --- | --- | --- | --- | --- | --- | --- |
| CCC(/C=C/c1ccccc1)=N\OCC(C)CN(C)C (racemic) [Example 18, (R,S)-1-Phenyl-3-(E)-[3-(dimethylamino)-2-methylpropoxyimino]-1-(E)-pentene] | 1 mg/kg | 12% |  |  |  |  |  |  |  | inhibition of spontaneous motor activity at 100 mg/kg (mice; mice, orally, 100 mg/kg): 54% |
| CCC(/C=C/c1ccc(Cl)cc1)=N\OCC(C)CN(C)C (racemic) [Example 19, (R,S)-1-(4-Chlorophenyl)-3-(E)-[3-(dimethylamino)-2-methylpropoxyimino]-1-(E)-pentene] | 10 mg/kg | 19% | > 100 mg/kg |  |  |  |  |  |  |  |
| CC(C)CCC(/C=C/c1ccc(Cl)cc1)=N\OCC(O)CNC1CCCCC1 (racemic) [Example 36, (R,S)-1-(4-Chlorophenyl)-6-methyl-3-(E)-[3-(cyclohexylamino)-2-hydroxypropoxyimino]-1-(E)-heptene] |  |  |  |  |  |  |  |  |  | LD50 at 336 h ([3]; mice, 14 days observation): 30 to 100 mg/kg; LD50 at 336 h ([4]; mice, 14 days observation): > 1000 mg/kg |
| CC(C)CCC(/C=C/c1ccc(Cl)cc1)=N\OCC(O)CN1CCCCC1 (racemic) [Example 37, (R,S)-1-(4-Chlorophenyl)-6-methyl-3-(E)-[2-hydroxy-3-(1-piperidinyl)-propoxyimino]-1-(E)-heptene] |  |  |  | 30 to 100 mg/kg | 3 to 10 mg/kg | > 10 | 21 µM | 100 to 300 mg/kg | > 1000 mg/kg |  |
| CNC1=Nc2ccc(Cl)cc2C(c2ccccc2)=[N+]([O-])C1 [Chlorodiazepoxide, reference compound] |  |  | 56 mg/kg |  |  |  |  |  |  |  |
| CN/C(=N/CCSCc1nc[nH]c1C)NC#N [Cimetidine, reference compound] |  |  |  |  | 100 to 200 mg/kg | 0.3-0.6 |  |  |  | ED50 (gastric-acid secretion; Rattus norvegicus, 4 h): 59.1 mg/kg |
| CN1C(=O)CN=C(c2ccccc2)c2cc(Cl)ccc21 [Diazepam, reference compound] |  |  |  |  |  |  |  |  |  | ED50 (mice): 23 mg/kg |
| CCCC(/C=C/c1ccccc1)=N\OCCN(CC)CC [Example 1, 1-Phenyl-3-(E)-[2-(diethylamino)-ethoxyimino]-1-(E)-hexene] | 30 mg/kg | 10% | > 100 mg/kg |  |  |  |  |  |  |  |
| CCCCCCC(/C=C/c1ccc(Cl)cc1)=N\OCCN1CCCCC1 [Example 3, 1-(4-Chlorophenyl)-3-(E)-[2-(N-piperidinyl)-ethoxyimino]-1-(E)-nonene] |  |  |  | 50 to 150 mg/kg | 2.5 mg/kg | > 20 | 10 µM | 100 to 300 mg/kg | 500 to 1000 mg/kg |  |
| CC(C)CCC(/C=C/c1ccccc1)=N\OCCCN(C)C [Example 5, 1-Phenyl-6-methyl-3-(E)-[3-(dimethylamino)-propoxyimino]-1-(E)-heptene] | > 30 mg/kg | 16% | > 100 mg/kg |  |  |  |  |  |  |  |
| CCC(/C=C/c1ccc(Cl)cc1)=N\OCCN(C)C [Example 7, 1-(4-Chlorophenyl)-3-(E)-[2-(dimethylamino)-ethoxyimino]-1-(E)-pentene] | 3 mg/kg | 22% | > 100 mg/kg |  |  |  |  |  |  |  |
| CC(C)CCC(/C=C/c1ccc(Cl)cc1)=N\OCCCN(C)C [Example 13, 1-(4-Chlorophenyl)-6-methyl-3-(E)-[3-(dimethylamino)-propoxyimino]-1-(E)-heptene] | > 30 mg/kg | 12% | > 100 mg/kg |  |  |  |  |  |  |  |
| CCC(/C=C/c1ccccc1)=N\OCCN(C)C [Example 14, 1-Phenyl-3-(E)-[2-(dimethylamino)-ethoxyimino]-1-(E)-pentene] | 10 mg/kg | 18% | > 100 mg/kg |  |  |  |  |  |  |  |
| CC(C)CCC(/C=C/c1ccc(Cl)cc1)=N\OCCN(C)C [Example 15] | 3 mg/kg | 11% | > 100 mg/kg |  |  |  |  |  |  |  |
| CC(C)CC(/C=C/c1ccccc1)=N\OCCN(C)C [Example 17, 1-Phenyl-5-methyl-3-(E)-[2-(dimethylamino)-ethoxyimino]-1-(E)-hexene] | 30 mg/kg | 40% | > 100 mg/kg | 166 mg/kg | 2.7 mg/kg | 61.4 | > 30 µM | 100 to 300 mg/kg | > 1000 mg/kg | antipsychotic / conditioned-reflex-inhibiting activity (in words) (Male Wistar rats [2]; in vivo): slight conditioned-reflex-inhibiting activity |
| CC(C)CCC(/C=C/c1ccc(Cl)cc1)=N\OCCCN1CCCCCC1 [Example 35, 1-(Chlorophenyl)-6-methyl-3-(E)-[3-(hexahydro-1-H-azepinyl)-propoxyimino]-1-(E)-heptene] |  |  |  |  |  |  |  | 30 to 100 mg/kg | > 1000 mg/kg |  |
| CC(C)CCC(/C=C/c1ccc(F)cc1)=N\OCCCN1CCCCC1 [Example 38, 1-(4-Fluorophenyl)-6-methyl-3-(E)-[3-(N-piperidinyl)-propoximino]-1-(E)-heptene] |  |  |  | 37.7 mg/kg | 1.3 mg/kg | 29.0 | 17 µM | 100 to 300 mg/kg | 500 to 1000 mg/kg |  |
| CC(C)CCC(/C=C/c1ccc(Cl)cc1)=N/OCCC1CCCN1C (centres unmarked) [Example 40, 1-(4-Chlorophenyl)-6-methyl-3-(Z)-[2-(2-N-methylpyrrolidinyl)-ethoxyimino]-1-(E)-heptene] |  |  |  | < 100 mg/kg | 0.9 mg/kg | < 100 | 10 µM | 100 to 300 mg/kg | 1000 mg/kg |  |
| CC(C)CCC(/C=C/c1ccc(Cl)cc1)=N\OCCCN1CCCC1 [Example 41, 1-(4-Chlorophenyl)-6-methyl-3-(E)-[3-(N-pyrrolidinyl)-propoxyimino]-1-(E)-heptene] |  |  |  | < 100 mg/kg | 2 mg/kg | < 50 | 9 µM | 30 to 100 mg/kg | > 1000 mg/kg |  |
| CC(C)CCC(/C=C/c1ccc(Br)cc1)=N\OCCCN1CCCCC1 [Example 42, 1-(4-Bromophenyl)-6-methyl-3-(E)-[(3-N-piperidinyl)-propoxyimino]-1-(E)-heptene] |  |  |  |  |  |  | 7 µM | 100 to 300 mg/kg | > 1000 mg/kg |  |
| COc1ccc2[nH]c([S+]([O-])Cc3ncc(C)c(OC)c3C)nc2c1 (centres unmarked) [Omeprazole, reference compound] |  |  |  | 3.9 mg/kg | 4.5 mg/kg | 0.9 |  |  |  |  |
| CN1CCN(CC(=O)N2c3ccccc3C(=O)Nc3cccnc32)CC1 [Pirenzepine, reference compound] |  |  |  | 7.9 mg/kg | 18.6 mg/kg | 0.4 |  |  |  |  |
| Sucralfate [reference compound] |  |  |  |  |  |  |  |  |  | Ethanol erosion ED50 ([5]; p.o., 1 cm^3 abs. ethanol): 69.0 |
